Test results reported in patent US9533986B2, “Bicyclic dihydropyridone kinase inhibitors” (PORTOLA PHARMACEUTICALS, INC., priority 2012, dated 2017).

Each compound was assayed against T1, full length active recombinant SYK enzyme (Homo sapiens, UniProt P43405) (assay: Inhibition of Syk tyrosine phosphorylation activity (LANCE TR-FRET kinase assay)). Settings: 1 nM active SYK enzyme, 550 nM SYK-substrate, 100 μM ATP, 1 hour at room temperature.
T1 construct: full length active recombinant SYK enzyme (Millipore, Calif.); purchased Millipore
Assay type: biochemical
Procedure: The in vitro and in vivo human JAK/Syk activities of the inventive compounds can be determined by various procedures known in the art, such as a test for their ability to inhibit the activity of human plasma JAK/Syk. […] The IC50 value is the concentration of the compound required to provide 50% inhibition of human JAK/Syk proteolytic activity.
An in vitro assay for detecting and measuring inhibition activity against Syk is as follows.
SYK tyrosine phosphorylation activity is measured using the LANCE™ Technology developed by Perkin Elmer Life and Analytical Sciences (Boston, Mass.). LANCE™ refers to homogeneous time resolved fluorometry applications using techniques such as time-resolved fluorescence resonance energy transfer assay (TR-FRET) (see generally for procedures in Perkin Elmer Application Note—How to Optimize a Tyrosine Kinase Assay Using Time Resolved Fluorescence-Based LANCE Detection, wwww.perkinelmer.com/lifesciences). The assay principle involves detection of a phosphorylated substrate using energy transfer from a phosphospecific europium-labeled antibody to streptavidin-allophycocyanin as an acceptor.
Molecules are reconstituted in 30% DMSO and serially diluted 1:3 with the final dilution containing DMSO in the absence of the candidate molecule. The final DMSO concentration in the assay is 3%. Kinase assays are performed as a two part reaction. The first reaction is a kinase reaction which comprises a candidate molecule, full length active recombinant SYK enzyme (Millipore, Calif.), and biotin-DEEDYESP-OH, a biotin-labeled SYK-specific substrate. The second reaction involves termination of the kinase reaction and the simultaneous addition of the detection reagents—europium-labeled anti-phosphotyrosine reagent (Eu-W1024-PY100, Perkin Elmer, Boston, Mass.) and Streptavidin-Allophycocyanin detection reagent (SA-APC, Prozyme, CA). The kinase reaction is performed in a black U-bottom 96-well microtitre plate. The final reaction volume is 50 μL and contains a final concentration of 1 nM active SYK enzyme, 550 nM SYK-substrate, and 100 μM ATP diluted in a buffer containing 50 mM Tris pH 7.5, 5 mM MgCl2, and 1 mM DTT. The reaction is allowed to proceed for 1 hour at room temperature. The quench buffer contains 100 mM Tris pH 7.5, 300 mM NaCl2, 20 mM EDTA, 0.02% Brij35, and 0.5% BSA. […] Detection of the phosphorylated substrate in the absence and presence of inhibitors is measured in the TR-FRET instrument, Analyst HT (Molecular Probes, Sunnyvale, Calif.) and the condition for measurements are set using CriterionHost Release 2.0 (Molecular Probes, Sunnyvale, Calif.). […] Inhibition of SYK-tyrosine kinase activity is calculated as the maximum response observed in the presence of inhibitor, compared to that in the absence of inhibitor. […]
Cc1cccc(Nc2nc(N[C@@H]3CCCC[C@@H]3N)nc3c2C(=O)NCC3)c1 [Example 1, 2-(((1R,2S)-2-aminocyclohexyl)amino)-4-(m-tolylamino)-7,8-dihydropyrido[4,3-d]pyrimidin-5(6H)-one] gave an IC50 of at most 100 nM.
In the case of N[C@H]1CCCC[C@H]1Nc1nc2c(c(Nc3cccc(-c4ncccn4)c3)n1)C(=O)NCC2 [Example 4, 2-(((1R,2S)-2-aminocyclohexyl)amino)-4-((3-(pyrimidin-2-yl)phenyl)amino)-7,8-dihydropyrido[4,3-d]pyrimidin-5(6H)-one], the IC50 is reported as at most 250 nM.
Compound N[C@H]1CCCC[C@H]1Nc1nc2c(c(Nc3cccc(-n4nccn4)c3)n1)C(=O)NCC2 [Example 6, 4-((3-(2H-1,2,3-triazol-2-yl)phenyl)amino)-2-(((1R,2S)-2-aminocyclohexyl)amino)-7,8-dihydropyrido[4,3-d]pyrimidin-5(6H)-one] has an IC50 of at most 100 nM.
COc1ccc(Nc2nc(N[C@@H]3CCCC[C@@H]3N)nc3c2C(=O)NCC3)cc1C(F)(F)F [Example 7, 2-(((1R,2S)-2-aminocyclohexyl)amino)-4-((4-methoxy-3-(trifluoromethyl)phenyl)amino)-7,8-dihydropyrido[4,3-d]pyrimidin-5(6H)-one] was tested, and the IC50 was over 250 nM.
